Common to all, as to assay type: biochemical
The target in one assay is T1, Human JAK3 (Homo sapiens, UniProt P52333).
T1 construct: purchased Millipore, Germany
T1 sequence (P52333 1-1124): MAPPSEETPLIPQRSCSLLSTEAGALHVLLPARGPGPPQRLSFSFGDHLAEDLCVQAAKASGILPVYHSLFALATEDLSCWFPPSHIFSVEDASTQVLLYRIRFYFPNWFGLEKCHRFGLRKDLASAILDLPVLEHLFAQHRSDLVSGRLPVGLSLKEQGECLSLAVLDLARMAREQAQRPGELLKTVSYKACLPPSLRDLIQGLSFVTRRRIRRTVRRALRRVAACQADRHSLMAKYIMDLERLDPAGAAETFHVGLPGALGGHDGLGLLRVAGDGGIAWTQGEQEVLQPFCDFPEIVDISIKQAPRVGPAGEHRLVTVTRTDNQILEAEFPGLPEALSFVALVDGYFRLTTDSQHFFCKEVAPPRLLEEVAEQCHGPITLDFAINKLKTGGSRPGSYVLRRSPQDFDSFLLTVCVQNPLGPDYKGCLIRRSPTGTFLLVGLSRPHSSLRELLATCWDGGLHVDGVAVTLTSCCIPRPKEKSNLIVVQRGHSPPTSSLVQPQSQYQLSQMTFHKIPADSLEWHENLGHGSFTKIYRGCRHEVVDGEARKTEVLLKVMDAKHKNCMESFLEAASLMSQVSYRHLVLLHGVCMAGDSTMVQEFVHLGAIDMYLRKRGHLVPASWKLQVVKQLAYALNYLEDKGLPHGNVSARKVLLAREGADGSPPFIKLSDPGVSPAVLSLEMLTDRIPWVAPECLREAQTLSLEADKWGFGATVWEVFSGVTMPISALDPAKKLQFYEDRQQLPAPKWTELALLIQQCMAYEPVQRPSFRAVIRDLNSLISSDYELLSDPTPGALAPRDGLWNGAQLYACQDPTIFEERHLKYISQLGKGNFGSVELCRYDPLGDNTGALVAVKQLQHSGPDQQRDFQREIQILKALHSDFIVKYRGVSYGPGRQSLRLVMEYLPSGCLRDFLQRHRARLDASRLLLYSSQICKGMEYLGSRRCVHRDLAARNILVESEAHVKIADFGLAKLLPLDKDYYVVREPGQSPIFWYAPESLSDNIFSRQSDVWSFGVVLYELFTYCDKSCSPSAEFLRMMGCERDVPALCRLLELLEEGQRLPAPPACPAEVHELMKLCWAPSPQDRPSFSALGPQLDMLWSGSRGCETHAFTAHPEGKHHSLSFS
The assay is described as follows: In-vitro kinase inhibition test, JAK3. The settings on record: for inhibition at 1 µM: compound at 1 uM, read-out: JAK3 kinase-phosphorylation inhibitory level (% inhibition).

The target of a further assay is T2, Human JAK1 (Homo sapiens, UniProt P23458).
T2 construct: purchased Millipore, Germany
T2 sequence (P23458 whole entry): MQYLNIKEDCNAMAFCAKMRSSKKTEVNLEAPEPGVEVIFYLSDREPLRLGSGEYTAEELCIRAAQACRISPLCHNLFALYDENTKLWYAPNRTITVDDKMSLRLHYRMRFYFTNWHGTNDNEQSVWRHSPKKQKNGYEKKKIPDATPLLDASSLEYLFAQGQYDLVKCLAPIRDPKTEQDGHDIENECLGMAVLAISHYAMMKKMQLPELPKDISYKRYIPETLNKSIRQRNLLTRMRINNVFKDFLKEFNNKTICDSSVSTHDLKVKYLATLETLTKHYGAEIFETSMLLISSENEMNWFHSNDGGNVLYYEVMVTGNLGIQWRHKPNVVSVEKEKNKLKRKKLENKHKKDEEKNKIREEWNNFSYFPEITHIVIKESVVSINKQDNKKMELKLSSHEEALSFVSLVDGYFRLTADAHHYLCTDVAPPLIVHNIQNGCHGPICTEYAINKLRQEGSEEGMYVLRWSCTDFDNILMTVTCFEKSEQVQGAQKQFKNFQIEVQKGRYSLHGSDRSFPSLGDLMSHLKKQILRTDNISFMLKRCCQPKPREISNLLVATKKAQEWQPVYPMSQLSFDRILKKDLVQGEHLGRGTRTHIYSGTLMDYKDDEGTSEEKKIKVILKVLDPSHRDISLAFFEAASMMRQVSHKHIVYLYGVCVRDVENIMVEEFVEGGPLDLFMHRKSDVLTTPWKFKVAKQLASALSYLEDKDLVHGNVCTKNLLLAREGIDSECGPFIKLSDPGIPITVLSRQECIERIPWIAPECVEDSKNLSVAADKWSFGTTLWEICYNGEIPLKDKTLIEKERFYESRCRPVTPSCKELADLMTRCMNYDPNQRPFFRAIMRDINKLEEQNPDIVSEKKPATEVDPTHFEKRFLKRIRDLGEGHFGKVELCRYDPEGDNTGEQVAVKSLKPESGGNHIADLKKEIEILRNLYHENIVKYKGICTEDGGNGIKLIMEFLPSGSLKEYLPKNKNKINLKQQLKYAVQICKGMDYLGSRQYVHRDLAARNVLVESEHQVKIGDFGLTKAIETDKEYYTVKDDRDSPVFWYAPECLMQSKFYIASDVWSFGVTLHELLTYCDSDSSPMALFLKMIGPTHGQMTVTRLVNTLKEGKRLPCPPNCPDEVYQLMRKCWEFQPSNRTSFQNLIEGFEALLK
Put plainly: In-vitro kinase inhibition test, JAK1. The settings on record: for inhibition at 1 µM: compound at 1 uM, read-out: JAK1 kinase-phosphorylation inhibitory level (% inhibition); for JAK1/JAK2: ratio of % inhibition of JAK1 to JAK2 at 1 uM.

The target in another assay is T3, Human JAK2 (Homo sapiens, UniProt O60674).
T3 construct: purchased Millipore, Germany
T3 sequence (O60674 whole entry): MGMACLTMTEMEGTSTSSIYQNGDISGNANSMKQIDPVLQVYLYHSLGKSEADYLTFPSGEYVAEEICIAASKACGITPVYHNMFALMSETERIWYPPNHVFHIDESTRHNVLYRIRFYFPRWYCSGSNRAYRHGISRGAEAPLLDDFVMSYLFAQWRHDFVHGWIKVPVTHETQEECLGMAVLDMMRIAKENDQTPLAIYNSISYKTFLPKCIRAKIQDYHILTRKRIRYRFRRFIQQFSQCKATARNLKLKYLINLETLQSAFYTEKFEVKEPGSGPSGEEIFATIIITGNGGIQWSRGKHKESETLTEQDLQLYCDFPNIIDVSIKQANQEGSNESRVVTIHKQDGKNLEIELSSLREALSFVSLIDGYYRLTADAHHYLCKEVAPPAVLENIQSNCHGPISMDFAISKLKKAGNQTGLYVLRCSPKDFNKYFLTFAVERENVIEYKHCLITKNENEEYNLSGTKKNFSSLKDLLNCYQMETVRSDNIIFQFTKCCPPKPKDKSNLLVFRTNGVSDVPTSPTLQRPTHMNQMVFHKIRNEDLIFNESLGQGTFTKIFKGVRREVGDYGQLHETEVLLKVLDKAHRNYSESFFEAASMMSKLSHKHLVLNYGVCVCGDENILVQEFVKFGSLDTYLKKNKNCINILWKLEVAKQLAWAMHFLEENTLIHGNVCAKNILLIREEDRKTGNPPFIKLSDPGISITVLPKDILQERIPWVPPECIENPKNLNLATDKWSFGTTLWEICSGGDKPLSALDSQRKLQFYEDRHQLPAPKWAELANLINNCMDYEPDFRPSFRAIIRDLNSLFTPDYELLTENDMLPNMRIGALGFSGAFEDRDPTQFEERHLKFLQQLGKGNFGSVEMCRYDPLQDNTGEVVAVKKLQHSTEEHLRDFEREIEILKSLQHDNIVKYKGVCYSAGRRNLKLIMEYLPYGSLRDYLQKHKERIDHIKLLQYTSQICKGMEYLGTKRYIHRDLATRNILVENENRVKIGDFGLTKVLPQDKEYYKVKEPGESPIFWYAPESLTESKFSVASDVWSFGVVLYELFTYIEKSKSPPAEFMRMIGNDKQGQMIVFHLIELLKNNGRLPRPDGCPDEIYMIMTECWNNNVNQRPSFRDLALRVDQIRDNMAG
The assay is described as follows: In-vitro kinase inhibition test, JAK2. The settings on record: for inhibition at 1 µM: compound at 1 uM, read-out: JAK2 kinase-phosphorylation inhibitory level (% inhibition).

The target in a further assay is T4, Human TYK2 (Homo sapiens, UniProt P29597).
T4 construct: purchased Millipore, Germany
T4 sequence (P29597 whole entry): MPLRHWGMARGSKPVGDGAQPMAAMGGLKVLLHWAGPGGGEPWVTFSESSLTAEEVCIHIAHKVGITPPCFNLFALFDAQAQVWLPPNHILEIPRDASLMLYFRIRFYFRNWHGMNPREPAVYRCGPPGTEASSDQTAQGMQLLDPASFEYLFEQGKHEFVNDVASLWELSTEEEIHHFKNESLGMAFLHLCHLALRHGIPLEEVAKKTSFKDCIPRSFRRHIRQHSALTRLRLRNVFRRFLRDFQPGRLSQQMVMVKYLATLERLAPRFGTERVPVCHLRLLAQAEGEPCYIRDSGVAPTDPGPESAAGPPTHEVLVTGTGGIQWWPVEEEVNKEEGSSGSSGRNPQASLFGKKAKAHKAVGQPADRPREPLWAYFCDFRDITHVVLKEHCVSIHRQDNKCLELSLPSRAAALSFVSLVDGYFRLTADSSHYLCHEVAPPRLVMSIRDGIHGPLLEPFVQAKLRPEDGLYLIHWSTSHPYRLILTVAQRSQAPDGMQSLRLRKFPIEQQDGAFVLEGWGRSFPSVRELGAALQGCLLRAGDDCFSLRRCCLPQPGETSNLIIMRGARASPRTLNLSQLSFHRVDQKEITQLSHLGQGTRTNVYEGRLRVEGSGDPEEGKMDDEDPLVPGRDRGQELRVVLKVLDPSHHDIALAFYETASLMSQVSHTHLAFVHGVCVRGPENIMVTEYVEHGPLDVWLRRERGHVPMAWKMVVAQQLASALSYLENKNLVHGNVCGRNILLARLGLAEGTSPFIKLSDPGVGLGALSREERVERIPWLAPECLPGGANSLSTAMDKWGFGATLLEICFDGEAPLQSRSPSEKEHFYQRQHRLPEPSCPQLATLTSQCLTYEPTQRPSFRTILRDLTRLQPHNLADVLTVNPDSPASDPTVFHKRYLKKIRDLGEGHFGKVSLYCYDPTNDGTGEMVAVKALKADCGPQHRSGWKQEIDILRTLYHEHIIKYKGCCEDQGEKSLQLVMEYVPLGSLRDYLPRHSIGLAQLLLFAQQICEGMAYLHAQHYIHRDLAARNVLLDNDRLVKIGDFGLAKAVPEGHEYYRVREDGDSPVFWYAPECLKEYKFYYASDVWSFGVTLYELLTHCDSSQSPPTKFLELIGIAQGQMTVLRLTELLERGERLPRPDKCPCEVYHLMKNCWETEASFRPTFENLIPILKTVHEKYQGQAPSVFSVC
The assay is described as follows: In-vitro kinase inhibition test, TYK2. Conditions: for inhibition at 1 µM: compound at 1 uM, read-out: TYK2 kinase-phosphorylation inhibitory level (% inhibition).

Experimental for Human JAK2: (§1) Human-derived JAK1, JAK2, JAK3 and TYK2 (Millipore, Germany) were used as kinases. Each kinase was diluted with an appropriate buffer as described below, and then mixed with reaction reagents.
(§2) 3-morpholinopropane-1-sulfonic acid (MOPS) and EDTA were dissolved in deionized water at a concentration of 20 mM and 1 mM, respectively, and then 100 μL of β-mercaptoethanol, 10 μL of Brij-35™, 5 mL of glycerol, and 100 mg of bovine serum albumin (BSA), each per 100 mL of the solution, were added to the solution, thereby preparing a dilution buffer for JAK2, JAK3, and TYK2.
(§3) Each compound was dissolved in a 100%-DMSO solution at a concentration of about 50 μM. This prepared solution was reacted with reaction reagents in each well of a 96-well plate until a final concentration of the compound reached 1 μM. A detailed experimental method for each kinase is as follows.
(§4) After reaction for about 40 minutes at room temperature, the reaction was stopped by adding 5 uL of a 3% (v/v) phosphoric acid solution.
(§5) The inhibitory levels (% inhibition) represent a percentage of reduction in phosphorylation activity in each test group with respect to the phosphorylation activity of a corresponding kinase in a negative control group lacking any of the compounds synthesized in the examples. % inhibition=[(Scintillation value of Test compound non-treatment group−Scintillation value of Test compound treatment group)/(Scintillation value of Test compound non-treatment group)]×100
Experimental for Human TYK2: as §1, §2, §3, §4, §5

Regarding `CN(c1ncnc2[nH]ccc12)C1CCN(S(=O)(=O)c2ccccc2)CC1` [Example 38, N-methyl-N-(1-(phenylsulfonyl)piperidine-4-yl)-7H-pyrrolo[2,3-d]pyrimidine-4-amine], the IC50 was found to be 147 nM on Human JAK3, 4.2 nM against Human JAK1, 19 nM on Human JAK2 and 18.8 nM at Human TYK2. Also, the inhibition at 1 µM came out at 77% at Human JAK3, 97% at Human JAK1, 94% on Human JAK2 and 97% on Human TYK2. The JAK1/JAK2 on Human JAK1 amounted to 1.03.
As to `CN(c1ncnc2[nH]ccc12)[C@@H]1CCN(CCC#N)C1` [Example 2, (R)-3-(3-(methyl(7H-pyrrolo[2,3-d]pyrimidine-4-yl)amino)pyrrolidine-1-yl)propanenitrile], the inhibition at 1 µM at Human JAK3 was found to be 39%; at Human JAK1, 91%; at Human JAK2, 42%; on Human TYK2 it was 58%. Moreover, the JAK1/JAK2 on Human JAK1 was determined as 2.17.
For the molecule `CN(c1ncnc2[nH]ccc12)[C@@H]1CCN(S(=O)(=O)c2ccc3ccccc3c2)C1` [Example 28, (R)—N-methyl-N-(1-(naphthalene-2-ylsulfonyl)pyrrolidine-3-yl)-7H-pyrrolo[2,3-d]pyrimidine-4-amine], the inhibition at 1 µM is 23% at Human JAK3, 99% at Human JAK1, 57% on Human JAK2 and 82% on Human TYK2. Also, the JAK1/JAK2 on Human JAK1 is listed as 1.74.
Regarding `CCCS(=O)(=O)N1CC[C@@H](N(C)c2ncnc3[nH]ccc23)C1` [Example 11, (R)—N-methyl-N-(1-(propylsulfonyl)pyrrolidine-3-yl)-7H-pyrrolo[2,3-d]pyrimidine-4-amine], the inhibition at 1 µM was found to be 20% on Human JAK3, 95% at Human JAK1, 62% at Human JAK2 and 78% at Human TYK2. For the same molecule, the JAK1/JAK2 on Human JAK1 stood at 1.55.
For `CCN(c1ncnc2[nH]ccc12)[C@@H]1CCN(C(=O)CC#N)C1` [Example 33, (R)-3-(3-(ethyl(7H-pyrrolo[2,3-d]pyrimidine-4-yl)amino)pyrrolidine-1-yl)-3-oxopropanenitrile] the same measures were 63%, 97%, 91%, 94% and 1.07.
For `CN(c1ncnc2[nH]ccc12)[C@@H]1CCN(S(=O)(=O)C(F)(F)F)C1` [Example 9, (R)—N-methyl-N-(1-((trifluoromethyl)sulfonyl)pyrrolidine-3-yl)-7H-pyrrolo[2,3-d]pyrimidine-4-amine] the same measures were 11%, 90%, 9%, 59% and 10.00.
Taken in the same sequence, the figures for `CN(c1ncnc2[nH]ccc12)[C@@H]1CCN(C(=O)CN=[N+]=[N-])C1` [Example 4, (R)-2-azido-1-(3-(methyl(7H-pyrrolo[2,3-d]pyrimidine-4-yl)amino)pyrrolidine-1-yl)ethane-1-one] were 33%, 98%, 79%, 86% and 1.24.
Turning to `CN(c1ncnc2[nH]ccc12)[C@@H]1CCN(C(=O)Nc2ccccc2)C1` [Example 7, (R)-3-(methyl(7H-pyrrolo[2,3-d]pyrimidine-4-yl)amino)-N-phenylpyrrolidine-1-carboxamide], the inhibition at 1 µM was determined as 42% at Human JAK3, 97% at Human JAK1, 68% at Human JAK2 and 72% on Human TYK2. Moreover, on Human JAK1, the JAK1/JAK2 turned out to be 1.43.
In the case of `N#CCC(=O)N1C[C@H]2CCCN(c3ncnc4[nH]ccc34)[C@H]2C1` [Example 49, 3-((4aR,7aR)-1-(7H-pyrrolo[2,3-d]pyrimidine-4-yl)octahydro-6H-pyrrolo[3,4-b]pyridine-6-yl)-3-oxopropanenitrile], the inhibition at 1 µM at Human JAK3 is 1%; on Human JAK1 it was 54%; at Human JAK2, -7%; on Human TYK2, 21%. In addition, the JAK1/JAK2 entry on Human JAK1 is “∞”.
For `CN(c1ncnc2[nH]ccc12)[C@@H]1CCN(S(=O)(=O)N2CCCCC2)C1` [Example 29, (R)—N-methyl-N-(1-(piperidine-1-ylsulfonyl)pyrrolidine-3-yl)-7H-pyrrolo[2,3-d]pyrimidine-4-amine] the same measures were 10%, 91%, 21%, 65% and 4.33.
Taken in the same sequence, the figures for `CN(c1ncnc2[nH]ccc12)[C@@H]1CCCN(C(=O)CC#N)C1` [Example 40, (R)-3-(3-(methyl(7H-pyrrolo[2,3-d]pyrimidine-4-yl)amino)piperidine-1-yl)-3-oxopropanenitrile] were 81%, 99%, 83%, 93% and 1.19.
For `CCN(c1ncnc2[nH]ccc12)[C@@H]1CCN(S(=O)(=O)c2cccc(C#N)c2)C1` [Example 34, (R)-3-((3-(ethyl(7H-pyrrolo[2,3-d]pyrimidine-4-yl)amino)pyrrolidine-1-yl)sulfonyl)benzonitrile] the same measures were 19%, 97%, 86%, 92% and 1.13.
With `N#Cc1cccc(S(=O)(=O)N2CCCC(COc3ncnc4[nH]ccc34)C2)c1` (stereo not shown) [Example 48, 3-((3-(((7H-pyrrolo[2,3-d]pyrimidine-4-yl)oxy)methyl)piperidine-1-yl)sulfonyl)benzonitrile], the inhibition at 1 µM was 19% at Human JAK3, 25% at Human JAK1, 17% on Human JAK2 and 7% at Human TYK2. Further, the JAK1/JAK2 at Human JAK1 worked out at 1.47.
For `CN(c1ncnc2[nH]ccc12)[C@@H]1CCN(S(=O)(=O)c2ccccc2)C1` [Example 14, (R)—N-methyl-N-(1-(phenylsulfonyl)pyrrolidine-3-yl)-7H-pyrrolo[2,3-d]pyrimidine-4-amine] the same measures were 17%, 99%, 69%, 91% and 1.43.
Taken in the same sequence, the figures for `N#Cc1cccc(S(=O)(=O)N2CC[C@@H](Nc3ncnc4[nH]ccc34)C2)c1` [Example 32, (R)-3-((3-((7H-pyrrolo[2,3-d]pyrimidine-4-yl)amino)pyrrolidine-1-yl)sulfonyl)benzonitrile] were 3%, 67%, 29%, 30% and 2.31.
As for `CN(c1ncnc2[nH]ccc12)[C@@H]1CCN(C(=O)CC#N)C1` [Example 1, (R)-3-(3-(methyl(7H-pyrrolo[2,3-d]pyrimidine-4-yl)amino)pyrrolidine-1-yl)-3-oxopropanenitrile], the figures for the inhibition at 1 µM at Human JAK3, on Human JAK1 and on Human JAK2 were 20%, 97% and 70%, respectively.
Taken in the same sequence, the figures for `CN(c1ncnc2[nH]ccc12)[C@H]1CCN(C(=O)CC#N)C1` [Example 31, (S)-3-(3-(methyl(7H-pyrrolo[2,3-d]pyrimidine-4-yl)amino)pyrrolidine-1-yl)-3-oxopropanenitrile] were 27%, 23% and -6%.

(Values after patent US10407430B2, “Janus kinase 1 selective inhibitor and pharmaceutical use thereof” (YANG JI CHEMICAL CO., LTD., priority 2015, dated 2019).)
